# Tested on: Mycobacterium tuberculosis variant bovis
# Test: Antimycobacterial activity against Mycobacterium bovis ATCC 35737 assessed as reduction in bacterial cell growth incubated for 8 days by alamar blue staining based assay
# Assay type: functional
# Details: ATCC 35737, 192 h
row,Structure (SMILES),MIC
1,C[C@]1(CN2CCc3nc(-c4ccc(C#N)cc4)ccc3C2)Cn2cc([N+](=O)[O-])nc2O1,2 µg/mL
2,C[C@]1(CN2CCn3cc(-c4ccc(F)c(F)c4)nc3C2)Cn2cc([N+](=O)[O-])nc2O1,1 µg/mL
3,C[C@]1(CN2CCc3nc(-c4ccccc4)ccc3C2)Cn2cc([N+](=O)[O-])nc2O1,0.25 µg/mL
4,C[C@]1(CN2CCc3nc(-c4cc(F)ccc4F)ccc3C2)Cn2cc([N+](=O)[O-])nc2O1,≤ 0.0625 µg/mL
5,C[C@]1(CN2CCc3nc(-c4ccc(Cl)c(F)c4)ccc3C2)Cn2cc([N+](=O)[O-])nc2O1,≤ 0.0625 µg/mL
6,C[C@]1(CN2CCc3nc(-c4ccc(F)cc4)oc3C2)Cn2cc([N+](=O)[O-])nc2O1,0.25 µg/mL
7,C[C@]1(CN2CCc3oc(-c4ccc(F)c(F)c4)nc3C2)Cn2cc([N+](=O)[O-])nc2O1,0.25 µg/mL
8,C[C@]1(CN2CCc3nc(C(F)(F)F)ccc3C2)Cn2cc([N+](=O)[O-])nc2O1,2 µg/mL
9,C[C@]1(CN2CCc3nc(C4CC4)ccc3C2)Cn2cc([N+](=O)[O-])nc2O1,0.5 µg/mL
10,C[C@]1(CN2CCc3nc(-c4cc(F)ccc4Cl)ccc3C2)Cn2cc([N+](=O)[O-])nc2O1,≤ 0.0625 µg/mL
11,C[C@]1(CN2CCn3nc(-c4ccc(F)c(F)c4)nc3C2)Cn2cc([N+](=O)[O-])nc2O1,1 µg/mL
12,C[C@]1(CN2CCc3nc(-c4ccc(F)cc4F)ccc3C2)Cn2cc([N+](=O)[O-])nc2O1,≤ 0.0625 µg/mL
13,C[C@]1(CN2CCn3cc(-c4ccc(F)cc4)nc3C2)Cn2cc([N+](=O)[O-])nc2O1,1 µg/mL
14,C[C@]1(CN2CCc3nc(C4CCCCC4)ccc3C2)Cn2cc([N+](=O)[O-])nc2O1,0.25 µg/mL
15,C[C@]1(CN2CCc3nc(-c4cccc(Cl)c4F)ccc3C2)Cn2cc([N+](=O)[O-])nc2O1,≤ 0.0625 µg/mL
16,C[C@]1(CN2CCc3nc(N4CCOCC4)ccc3C2)Cn2cc([N+](=O)[O-])nc2O1,0.5 µg/mL
17,C[C@]1(CN2CCc3nc(N4CCCCC4)ccc3C2)Cn2cc([N+](=O)[O-])nc2O1,0.5 µg/mL
18,C[C@]1(CN2CCc3nc(-c4ccc(F)c(Cl)c4)ccc3C2)Cn2cc([N+](=O)[O-])nc2O1,≤ 0.0625 µg/mL
19,C[C@]1(CN2CCc3nc(-c4ccc(Cl)cc4F)ccc3C2)Cn2cc([N+](=O)[O-])nc2O1,≤ 0.0625 µg/mL
20,C[C@]1(CN2CCc3nc(-c4cc(F)c(F)c(F)c4)ccc3C2)Cn2cc([N+](=O)[O-])nc2O1,≤ 0.0625 µg/mL
21,C[C@]1(CN2CCc3oc(-c4ccc(F)cc4)cc3C2)Cn2cc([N+](=O)[O-])nc2O1,1 µg/mL

row,Structure (SMILES),MIC
1,C[C@]1(CN2CCc3sc(-c4ccc(F)cc4)nc3C2)Cn2cc([N+](=O)[O-])nc2O1,0.25 µg/mL
2,C[C@]1(COc2ccc(N3CCC(Oc4ccc(OC(F)(F)F)cc4)CC3)cc2)Cn2cc([N+](=O)[O-])nc2O1,≤ 0.0625 µg/mL
3,C[C@]1(CN2CCc3nc(C4CCOCC4)ccc3C2)Cn2cc([N+](=O)[O-])nc2O1,2 µg/mL
4,C[C@]1(CN2CCc3nc(-c4ccc(Cl)cc4)ccc3C2)Cn2cc([N+](=O)[O-])nc2O1,2 µg/mL
5,C[C@]1(CN2CCc3oc(-c4ccc(F)cc4)nc3C2)Cn2cc([N+](=O)[O-])nc2O1,0.5 µg/mL
6,C[C@]1(CN2CCc3nc(-c4ccc(F)cc4)sc3C2)Cn2cc([N+](=O)[O-])nc2O1,0.125 µg/mL
7,C[C@]1(CN2CCc3nc(-c4ccc(C(F)(F)F)cc4)ccc3C2)Cn2cc([N+](=O)[O-])nc2O1,≤ 0.0625 µg/mL
8,C[C@]1(CN2CCc3nc(-c4ccc(F)cc4)nnc3C2)Cn2cc([N+](=O)[O-])nc2O1,0.5 µg/mL
9,C[C@]1(CN2CCc3nc(-c4ccccc4F)ccc3C2)Cn2cc([N+](=O)[O-])nc2O1,0.125 µg/mL
10,C[C@]1(CN2CCc3nc(-c4ccc(F)c(F)c4)oc3C2)Cn2cc([N+](=O)[O-])nc2O1,0.125 µg/mL
11,C[C@]1(CN2CCc3nc(-c4cccc(F)c4)ccc3C2)Cn2cc([N+](=O)[O-])nc2O1,≤ 0.0625 µg/mL
12,C[C@]1(CN2CCc3nc(-c4cc(Cl)ccc4F)ccc3C2)Cn2cc([N+](=O)[O-])nc2O1,≤ 0.0625 µg/mL
13,C[C@]1(CN2CCc3nc(-c4cc(F)cc(F)c4)ccc3C2)Cn2cc([N+](=O)[O-])nc2O1,≤ 0.0625 µg/mL
14,C[C@]1(CN2CCc3nc(N4CCC(F)(F)CC4)ccc3C2)Cn2cc([N+](=O)[O-])nc2O1,0.5 µg/mL
15,C[C@]1(CN2CCc3nc(-c4cccc(F)c4F)ccc3C2)Cn2cc([N+](=O)[O-])nc2O1,≤ 0.0625 µg/mL
16,C[C@]1(CN2CCc3nc(-c4ccccc4)ncc3C2)Cn2cc([N+](=O)[O-])nc2O1,1 µg/mL
17,C[C@]1(CN2CCc3nc(-c4cc(F)cc(Cl)c4)ccc3C2)Cn2cc([N+](=O)[O-])nc2O1,≤ 0.0625 µg/mL
18,C[C@]1(CN2CCc3nc(-c4ccc(F)cc4)ccc3C2)Cn2cc([N+](=O)[O-])nc2O1,≤ 0.0625 µg/mL
19,C[C@]1(CN2CCc3nc(-c4ccc(OC(F)(F)F)cc4)ccc3C2)Cn2cc([N+](=O)[O-])nc2O1,8 µg/mL
20,C[C@]1(CN2CCc3nc(-c4ccc(F)c(F)c4)ccc3C2)Cn2cc([N+](=O)[O-])nc2O1,≤ 0.0625 µg/mL
